Consider 12 compounds from patent US4001323A, “Water-soluble, non-ionizing hydroxy-containing amide derivatives of 2,4,6-triiodo-isophthalic acid” (Savac AG, priority 1974, dated 1977).

Values after ≈ are worked out from the molar mass of the structure shown.

Series [1] is described as follows: Solubility in water (Table I). Type of series: physicochemical. The conditions noted are these: for solubility: water. How it is done: The following Examples are further illustrative of this invention. All solubility values are in grams per 100 ml unless stated otherwise.
A short description of series [2]: Solubility in organic solvents. Type of series: physicochemical. Here is the method:
(§1) 10 Ml of a solution containing 10 g Compound A was stored several days at 4° C, whereby only 2.3 g of the compound was precipitated.

The nature of series [3]: Storage / supersaturation stability of aqueous solutions. Type of series: physicochemical. How it is done: as §1
The residue was recrystallized from aqueous methanol and consisted of 11.6 g DL-5-α,β-dihydroxypropionylamino-2,4,6-triiodo-isophtalic acid di-(1,3-dihydroxyisopropylamide) (62.5% yield). It sintered and melted at 210° - 230° C and decomposed at 260° C. It gave an Rf value of 0.15 by thin layer chromatography on silica gel with chloroform/methanol/aqueous 25% ammonia 6:3:1. It was identified by elementary analysis for carbon and iodine which yielded values of 25.70% C and 48.29% I against 25.74% and 48.00% respectively calculated for C17 H22 I3 N3 O9.

Another series concerns rabbits. In words: Acute intracisternal toxicity LD50 in rabbits. The following applies: 400 mg I per ml. Type of series: in vivo. Here is the method:
(§2) The solutions injected for i.v., i.p., i.ci., and i.ca. toxicity tests contained 400 mg I per ml. The rate of injection was 20 mg I per kg and minute for i.v. and i.ca. toxicity. In the tests for i.ce. toxicity, the injected volume was 5ml/kg, and the concentration was varied. Results of i.v. and i.p. toxicity tests were evaluated after 12 days, results of i.ce. and i.ca. toxicity tests after 48 hours.

Series [4] can be described thus: Viscosity of aqueous solutions. The class given is physicochemical. How it is done: Aqueous solutions of Compound A containing 300 and 400 mg iodine respectively had viscosities of 8.95 and 40.6 c.p. at 20°, 4.70 and 16.1 c.p. at 37° C. A low viscosity facilitates injection.
The subject of series [5] is mice. In words: Acute toxicity LD50 in mice (i.v., i.p., i.ce.). The conditions noted are these: for Toxicity, LD50, i.ce.: intracerebral, 5 ml/kg, concentration varied, evaluated after 48 hours; for Toxicity, LD50, i.p.: intraperitoneal; for Toxicity, LD50, i.p. / Toxicity, LD50, i.v.: 400 mg I per ml, evaluated after 12 days; for Toxicity, LD50, i.v.: intravenous, 20 mg I per kg and minute. The class given is in vivo. How it is done: as §2

The next series deals with rats. Put plainly: Acute intracarotideal toxicity LD50 in rats. Type of series: in vivo. The conditions noted are these: 400 mg I per ml, 20 mg I per kg and minute, evaluated after 48 hours. Here is the method:
as §2

Series [6] can be described thus: Thermal stability of aqueous solutions. On the set-up: key to Appearance, initial / Appearance, 30 min. / Appearance, 15 hrs.: (1): Clear solution; (2): Colorless; (3): Slightly colored; (4): Brown suspension, black sediment. The conditions noted are these: 400 mg I per ml, under nitrogen, 120° C. Type of series: physicochemical. How it is done: For a comparison of thermal stability, aqueous solutions of Compounds A and H containing 400 mg I per ml where heated under nitrogen at 120° C. pH, iodide ion concentration and appearance were determined initially, after 30 minutes and after 15 hours.

Series [7] concerns mice. The following applies: intravenous, literature; cited from earlier work.
The conditions of series [8]: in vivo; cited from earlier work.
The conditions of series [9]: cited from earlier work.
Where [10] appears, read: 20° C, read-out: Solubility in water at 20° C.
The mark [11] stands for this setting: 40° C, read-out: Solubility in water at 40° C.
Setting [12] is: 60° C, read-out: Solubility in water at 60° C.

With “5-α-acetoxypropionylamino-2,4,6-triiodo-isophthalic acid di-(2,2-dimethyl-1,3-dioxolan-4-yl-methylamide)”, in series [1], the “Solubility in water (in words)” value is recorded as “practically insoluble in water”.

Turning to `C[C@H](O)C(=O)Nc1c(I)c(C(=O)NCC(O)CO)c(I)c(C(=O)NCC(O)CO)c1I` (mixture of isomers) [Compound C, L-5-α-hydroxypropionylamino-2,4,6-triiodo-isophthalic acid di-(DL-2,3-dihydroxypropyl-amide)], the “Solubility in water (in words)” value in series [1] is “very easily soluble in water”. The solubility stood at 157 mg/mL in series [1] (setting [10]), 210 mg/mL in series [1] (setting [11]) and 400 mg/mL in [1] (setting [12]). The “Solubility in ethanol (in words)” value in series [2] (ethanol) is reported as “somewhat less soluble in ethanol”.

Consider `CC(O)C(=O)Nc1c(I)c(C(=O)NCC(O)CO)c(I)c(C(=O)NCC(O)CO)c1I` (mixture of isomers) [Compound D, 5-DL-α-Hydroxypropionylamino-2,4,6-triiodo-isophthalic acid di-(DL-2,3-dihydroxypropylamide)], for which the “Solubility in water (in words)” value in [1] is reported as “somewhat less soluble than Compound C”. Besides, the “Solubility in water at 20° C” value in series [1] (20° C) is reported as 14 g/100 ml. For the same compound, in series [1] (40° C), the “Solubility in water at 40° C” value is on record as 20 g/100 ml. The “Solubility in water at 60° C” value in [1] (60° C) was 34 g/100 ml. For the same compound, the values for the solubility in series [1] (setting [10]), in series [1] (setting [11]) and in series [1] (setting [12]) were 140 mg/mL, 200 mg/mL and 340 mg/mL, respectively.

On to `CC(O)C(=O)Nc1c(I)c(C(=O)NC(CO)CO)c(I)c(C(=O)NC(CO)CO)c1I` (racemic) [Compound B, dl-5-α-hydroxypropionylamino-2,4,6triiodo-isophthalic acid di-(1,3-dihydroxyisopropylamide)], for which the solubility in [1] (setting [10]) is 300 mg/mL (≈ 386 mM); in series [1] (setting [11]), 300 mg/mL (≈ 386 mM); in series [1] (setting [12]) it was 320 mg/mL (≈ 412 mM).

Turning to `O=C(NC(CO)CO)c1c(I)c(NC(=O)C(O)CO)c(I)c(C(=O)NC(CO)CO)c1I` (racemic) [DL-5-α,β-dihydroxypropionylamino-2,4,6-triiodo-isophtalic acid di-(1,3-dihydroxyisopropylamide)], in series [1], the “Solubility in water (in words)” value is listed as “good solubility in warm water”. Further, the “Stability of supersaturated solutions” value in series [3] (37° C, water) was “stable for several hours at 37 °C”.

For `C[C@H](O)C(=O)Nc1c(I)c(C(=O)NC(CO)CO)c(I)c(C(=O)NC(CO)CO)c1I` [Compound A, L-5-α-Hydroxypropionylamino-2,4,6-triiodo-isophthalic acid di-(1,3-dihydroxyisopropylamide)], the “Toxicity, LD50, i.ci.” value in the series with rabbits is recorded as 250 mg I/kg. The “Viscosity of aqueous solution, 300 mg iodine, 20° C” value in series [4] (300 mg iodine, 20° C) came out at 8.95 c.p. Moreover, in [4] (300 mg iodine, 37° C), the “Viscosity of aqueous solution, 300 mg iodine, 37° C” value is recorded as 4.70 c.p. In addition, the “Viscosity of aqueous solution, 400 mg iodine, 20° C” value in series [4] (400 mg iodine, 20° C) is 40.6 c.p. Also, the “Viscosity of aqueous solution, 400 mg iodine, 37° C” value in series [4] (400 mg iodine, 37° C) is 16.1 c.p. In the series with mice [5], the “Toxicity, LD50, i.ce.” value amounted to 1500 mg I/kg; the “Toxicity, LD50, i.p.” value is given as 20000 mg I/kg; the “Toxicity, LD50, i.v.” value is given as 21800 mg I/kg. For the same compound, in [1], the “Solubility in water (in words)” value is on record as “very readily soluble in water”. The solubility in [1] (setting [10]) is 890 mg/mL (≈ 1150 mM). The solubility in [1] (setting [11]) is 1040 mg/mL (≈ 1340 mM). For the same compound, the solubility in [1] (setting [12]) was 1150 mg/mL (≈ 1480 mM). For the same compound, the “Toxicity, LD50, i.ca.” value in the series on rats turned out to be 6500 mg I/kg. Further, in series [6], the “Appearance, 30 min.” value is “(1) (2)”; the “iodide ion concentration, 30 min.” value turned out to be 0.3 mg I' per ml; the “pH, 30 min.” value came out at 7.29; the “Appearance, 15 hrs.” value is given as “(1) (3)”. In series [6], the “iodide ion concentration, 15 hrs.” value is given as 1.8 mg I' per ml; the “pH, 15 hrs.” value is 5.15; the “Appearance, initial” value is “(1) (2)”; the “iodide ion concentration, initial” value amounted to 0.15 mg I' per ml. Also, the “pH, initial” value in [6] amounted to 7.43. The “Solubility in ethanol (in words)” value in series [2] (ethanol) is listed as “miscible with boiling ethanol”. The Solubility in methanol entry in series [2] (methanol) is “practically unlimited”. In addition, the solubility in series [2] (organic solvent or mixture, ethanol, room temperature) was around 100 mg/mL (≈ 129 mM). Moreover, the “Amount precipitated from aqueous solution on storage” value in series [3] (10 ml of solution containing 10 g, several days at 4° C) is on record as 2.3 g.

For `CC(=O)Nc1c(I)c(C(=O)NCC(O)CO)c(I)c(C(=O)NCC(O)CO)c1I` (stereo not shown) [Compound F, 5-acetylamino:2,4,6-triiodo-isophthalic acid di-(2,3-dihydroxypropylamide), reference compound], the “Solubility in water (in words)” value in series [1] is reported as “poor solubility”. Moreover, the solubility in series [1] (setting [10]) came to 5 mg/mL (≈ 6.69 mM); in series [1] (setting [11]), 8 mg/mL (≈ 10.7 mM); in series [1] (setting [12]), 15 mg/mL (≈ 20.1 mM).

In the case of `CC(=O)Nc1c(I)c(C(=O)N[C@H]2C(O)O[C@H](CO)[C@@H](O)[C@@H]2O)c(I)c(N(C)C(C)=O)c1I` (stereo partly shown) [Compound H, 3-acetylamino-5-N-methyl-acetylamino-2,4,6-triiodobenzoyl-glucosamine, reference compound], the “Toxicity, LD50, i.ci.” value in the series with rabbits stood at 100 mg I/kg. For the same compound, in the series with mice [5], the “Toxicity, LD50, i.ce.” value worked out at 1400 mg I/kg; the “Toxicity, LD50, i.p.” value is 4800 mg I/kg; the “Toxicity, LD50, i.v.” value stood at 10200 mg I/kg. In addition, in series [1] (setting [10]), the solubility is around 800 mg/mL (≈ 1010 mM). For the same compound, in the series on mice [7], the “i.v. LD50 in mice (F.L. Weitl, 170th Am. Chem. Soc. meeting)” value is 23800 mg/kg and the “i.v. LD50 in mice (F.L. Weitl, 170th Am. Chem. Soc. meeting), as iodine” value is on record as 11400 mg I per kg. The “Toxicity (in words, known compound)” value in [8] is recorded as “relatively non-toxic”. Further, in [6], the “Appearance, 30 min.” value is reported as “(3)”; the “iodide ion concentration, 30 min.” value stood at 1.71 mg I' per ml; the “pH, 30 min.” value was found to be 6.45; the “Appearance, 15 hrs.” value is “(4)”. Moreover, in series [6], the “iodide ion concentration, 15 hrs.” value turned out to be 40.60 mg I' per ml; the “pH, 15 hrs.” value is 2.65; the “Appearance, initial” value is listed as “(1)”; the “iodide ion concentration, initial” value came out at 0.66 mg I' per ml. Further, the “pH, initial” value in [6] was found to be 6.54. Further, the “Solubility in water (in words, known compounds)” value in series [9] is given as “very soluble in water”.

Turning to `O=S(=O)(CI)NC(CO)CO` [Compound I, iodomethanesulfonic acid αγ-dihydroxyisopropylamide], the “Toxicity, LD50, i.ci.” value with rabbits stood at 89 mg I/kg. Also, in the series with mice [5], the “Toxicity, LD50, i.ce.” value came to 385 mg I/kg and the “Toxicity, LD50, i.v.” value is recorded as 4700 mg I/kg.

`CNC(=O)c1c(I)c(NC(=O)CCCCC(=O)Nc2c(I)c(C(=O)O)c(I)c(C(=O)NC)c2I)c(I)c(C(=O)O)c1I` [Compound K, 5,5'-adipoyldiimino-bis-(2,4,6-triiodo-N-methyl-isophthalamic acid)]: the “Toxicity, LD50, i.ci.” value in the series with rabbits is reported as 37 mg I/kg. Further, in the series with mice [5], the “Toxicity, LD50, i.ce.” value amounted to 280 mg I/kg and the “Toxicity, LD50, i.v.” value is 5500 mg I/kg.

As to `CC(=O)Nc1c(I)c(C(=O)NC(CO)CO)c(I)c(C(=O)NC(CO)CO)c1I` [E, 5-acetylamino-2,4,6-triiodo-isophthalic acid di-(1,3-dihydroxisopropylamide), reference compound], in [1], the “Solubility in water (in words)” value is “poor solubility”. For the same compound, the solubility in series [1] (setting [10]) turned out to be 2 mg/mL (≈ 2.68 mM); in series [1] (setting [12]), 5 mg/mL (≈ 6.69 mM).

`CC(=O)Nc1c(I)c(C(=O)N(C)CC(O)CO)c(I)c(C(=O)N(C)CC(O)CO)c1I` (stereo not shown) [G, 5-acetylamino-2,4,6-triiodo-isophthalic acid di-(N-methyl-2,3-dihydroxypropylamide)]: the “Toxicity, LD50, i.ci.” value in the series on rabbits is given as 81 mg I/kg. Besides, in the series on mice [5], the “Toxicity, LD50, i.ce.” value was found to be 820 mg I/kg and the “Toxicity, LD50, i.v.” value came to 15700 mg I/kg. Besides, the solubility in [1] (setting [10]) came out at 550 mg/mL (≈ 710 mM).
